Activity calls are given as the source filed them. The rule behind the calls is not given here.
Assays:
[1] = target: T1, Phosphatidylcholine:ceramide cholinephosphotransferase 1 (Homo sapiens, UniProt Q86VZ5); test: Inhibition of SMS1 (unknown origin) stably expressed in mouse ZS cells using C6-NBD-ceramide as substrate preincubated for 30 mins followed by substrate addition and measured after 3 hrs by HPLC analysis; assay type: cell-based
T1 sequence (Q86VZ5 whole entry): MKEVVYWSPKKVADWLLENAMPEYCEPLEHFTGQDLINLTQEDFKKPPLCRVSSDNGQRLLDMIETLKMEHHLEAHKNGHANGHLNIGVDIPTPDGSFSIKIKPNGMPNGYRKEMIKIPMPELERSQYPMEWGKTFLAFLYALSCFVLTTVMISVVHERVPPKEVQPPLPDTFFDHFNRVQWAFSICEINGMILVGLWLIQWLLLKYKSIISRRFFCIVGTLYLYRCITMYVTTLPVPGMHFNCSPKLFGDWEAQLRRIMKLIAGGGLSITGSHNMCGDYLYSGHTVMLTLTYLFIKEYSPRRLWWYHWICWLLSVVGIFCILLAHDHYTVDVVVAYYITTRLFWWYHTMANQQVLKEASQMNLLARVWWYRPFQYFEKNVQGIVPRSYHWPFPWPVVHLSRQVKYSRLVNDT

[2] = target: T2, Phosphatidylcholine:ceramide cholinephosphotransferase 2 (Homo sapiens, UniProt Q8NHU3); test: Inhibition of SMS2 (unknown origin) stably expressed in mouse ZS cells using C6-NBD-ceramide as substrate preincubated for 30 mins followed by substrate addition and measured after 3 hrs by HPLC analysis; assay type: cell-based
T2 sequence (Q8NHU3 whole entry): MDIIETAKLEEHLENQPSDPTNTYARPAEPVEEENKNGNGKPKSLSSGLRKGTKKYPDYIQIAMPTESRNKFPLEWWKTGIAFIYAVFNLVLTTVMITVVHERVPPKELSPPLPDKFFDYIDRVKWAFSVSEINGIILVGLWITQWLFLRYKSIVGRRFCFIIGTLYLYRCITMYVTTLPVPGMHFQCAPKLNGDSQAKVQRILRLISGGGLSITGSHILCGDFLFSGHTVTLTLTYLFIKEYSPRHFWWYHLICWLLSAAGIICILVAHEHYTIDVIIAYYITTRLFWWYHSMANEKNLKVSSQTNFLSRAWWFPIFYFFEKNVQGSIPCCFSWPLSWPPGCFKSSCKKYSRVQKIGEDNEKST

[3] = target: T1, Phosphatidylcholine:ceramide cholinephosphotransferase 1; test: Noncompetitive inhibition of SMS1 (unknown origin) stably expressed in mouse ZS cells using 5 to 50 uM C6-NBD-ceramide as substrate preincubated for 30 mins followed by substrate addition and measured after 3 hrs by HPLC analysis; assay type: cell-based
[4] = target: T2, Phosphatidylcholine:ceramide cholinephosphotransferase 2; test: Noncompetitive inhibition of SMS2 (unknown origin) stably expressed in mouse ZS cells using 5 to 50 uM C6-NBD-ceramide as substrate preincubated for 30 mins followed by substrate addition and measured after 3 hrs by HPLC analysis; assay type: cell-based
[5] = target: T3, Phosphatidylcholine:ceramide cholinephosphotransferase 2 (Mus musculus) (UniProt Q9D4B1); test: Inhibition of SMS2 in HFD-induced obese C57BL/6J mouse liver tissue lysate using NBD-ceramide as substrate assessed as reduction in […] preincubated for 30 mins followed by substrate addition and measured after 3 hrs by HPLC analysis; assay type: subcellular
T3 sequence (whole entry): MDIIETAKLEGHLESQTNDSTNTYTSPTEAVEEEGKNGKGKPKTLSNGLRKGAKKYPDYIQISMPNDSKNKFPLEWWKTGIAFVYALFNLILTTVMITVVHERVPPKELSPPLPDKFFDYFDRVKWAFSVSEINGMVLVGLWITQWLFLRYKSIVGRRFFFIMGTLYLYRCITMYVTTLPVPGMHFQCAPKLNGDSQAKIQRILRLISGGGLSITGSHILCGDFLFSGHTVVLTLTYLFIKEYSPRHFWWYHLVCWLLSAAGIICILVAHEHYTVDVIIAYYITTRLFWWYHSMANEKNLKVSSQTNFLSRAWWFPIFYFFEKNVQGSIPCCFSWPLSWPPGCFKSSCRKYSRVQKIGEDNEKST

MEF = test: Cytotoxicity against MEF cells at 0.01 to 1 mM incubated for 3 hrs by CCK8 assay relative to control; assay type: cell-based; conditions: mouse, 1000 µM
[6] = Toxicity in HFD-induced obese C57BL/6J mouse model assessed as effect on health measured over 2 months; conditions: in vivo, 1461 h
Mus musculus [7] = test: Antiobesity activity in HFD-induced obese C57BL/6J mouse model assessed as increase in glucose tolerance administrated orally for 8 weeks and measured post treatment by OGTT assay; assay type: functional, organism-based
HepG2 [8] = test: Lipid lowering activity in human HepG2 cells assessed as prevention in oleic acid-induced CD36/FAT activation; assay type: functional, cell-based
HepG2 [9] = test: Lipid lowering activity in human HepG2 cells assessed as change in oleic acid-induced free fatty acid level by ELISA; assay type: functional, cell-based
Mus musculus [10] = organism: Mus musculus; test: Antiobesity activity in HFD-induced obese C57BL/6J mouse model assessed as decrease in liver weight relative to control; assay type: functional, organism-based
[11] = Toxicity in HFD-induced obese C57BL/6J mouse model assessed as induction of leaner phenotype measured over 2 months; conditions: in vivo, 1461 h
HepG2 [12] = test: Lipid lowering activity in human HepG2 cells assessed as reduction in oleic acid-induced lipid droplet formation by nile red staining based fluorescence microscopic method; assay type: functional, cell-based
HepG2 [13] = test: Lipid lowering activity in human HepG2 cells assessed as reduction in oleic acid-induced intracellular TG accumulation by ELISA; assay type: functional, cell-based
Mus musculus [14] = organism: Mus musculus; test: Antiobesity activity in HFD-induced obese C57BL/6J mouse model assessed as reduction in TG level in liver by ELISA; assay type: functional, organism-based
Mus musculus [15] = organism: Mus musculus; test: Antiobesity activity in HFD-induced obese C57BL/6J mouse model assessed as reduction in free fatty acid level in plasma by ELISA; assay type: functional, organism-based
Mus musculus [16] = organism: Mus musculus; test: Antiobesity activity in HFD-induced obese C57BL/6J mouse model assessed as decrease in body weight measured after 20 days relative to control; assay type: functional; set-up: scale not given: the % may be the effect or the level left
Mus musculus [17] = organism: Mus musculus; test: Antiobesity activity in HFD-induced obese C57BL/6J mouse model assessed as decrease fat content in liver; assay type: functional, organism-based
Mus musculus [18] = organism: Mus musculus; test: Antiobesity activity in HFD-induced obese C57BL/6J mouse model assessed as improved lipid metabolism by oil red O-staining based histopathological analysis; assay type: functional, organism-based
[19] = Toxicity in HFD-induced obese C57BL/6J mouse model assessed as effect on behavior measured over 2 months; conditions: in vivo, 1461 h
Mus musculus [20] = organism: Mus musculus; test: Antiobesity activity in HFD-induced obese C57BL/6J mouse model assessed as resistance in steatosis development in liver by oil red O-staining based histopathological analysis; assay type: functional, organism-based
[21] = target: T4, Phosphatidylcholine:ceramide cholinephosphotransferase 1 (Mus musculus, UniProt Q8VCQ6); test: Inhibition of SMS1 in MEF cells using C6-NBD-ceramide as substrate preincubated for 1 hr followed by substrate addition and measured after 1 hr by HPLC analysis; assay type: cell-based
T4 sequence (Q8VCQ6 whole entry): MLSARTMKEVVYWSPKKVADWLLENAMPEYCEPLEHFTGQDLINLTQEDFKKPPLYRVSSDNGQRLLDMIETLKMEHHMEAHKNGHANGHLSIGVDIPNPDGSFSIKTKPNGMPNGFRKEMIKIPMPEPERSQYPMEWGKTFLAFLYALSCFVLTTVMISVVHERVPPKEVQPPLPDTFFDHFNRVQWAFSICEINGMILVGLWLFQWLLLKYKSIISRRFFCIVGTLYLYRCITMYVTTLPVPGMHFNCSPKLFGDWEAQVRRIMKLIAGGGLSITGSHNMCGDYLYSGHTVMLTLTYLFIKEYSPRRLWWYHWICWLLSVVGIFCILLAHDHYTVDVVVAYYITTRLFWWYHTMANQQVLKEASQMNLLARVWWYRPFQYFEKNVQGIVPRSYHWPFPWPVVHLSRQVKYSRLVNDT

[22] = Toxicity in HFD-induced obese C57BL/6J mouse model assessed as effect in daily food intake relative to control; conditions: in vivo
Mus musculus [23] = organism: Mus musculus; test: Antiobesity activity in HFD-induced obese C57BL/6J mouse model assessed as reduction in TG level in plasma by ELISA; assay type: functional, organism-based
[24] = target: T5, Phosphatidylcholine:ceramide cholinephosphotransferase 1 (Mus musculus) (UniProt Q8VCQ6); test: Inhibition of SMS1 in HFD-induced obese C57BL/6J mouse liver tissue lysate using […] as substrate assessed as reduction in SM synthesis preincubated for 30 mins followed by substrate addition and measured after 3 hrs by HPLC analysis; assay type: subcellular
T5 sequence (whole entry): T4 sequence (Q8VCQ6 whole entry)

[25] = target: T6, Phosphatidylcholine:ceramide cholinephosphotransferase 2 (Mus musculus, UniProt Q9D4B1); test: Inhibition of SMS2 in MEF cells using C6-NBD-ceramide as substrate preincubated for 1 hr followed by substrate addition and measured after 1 hr by HPLC analysis; assay type: cell-based
T6 sequence (Q9D4B1 whole entry): T3 sequence (whole entry)

## O=C(CCCCCCCCc1ccc(O)cc1)c1c(O)cc(O)cc1O
[1]
  IC50: 6 µM
[2]
  IC50: 4.5 µM

## O=C(CCCCCCCCc1ccccc1)c1c(O)cccc1O [MALABARICONE A]
[1]
  IC50: 4 µM
[3]
  IC50: 2 to 3 µM
[2]
  IC50: 4 µM
[4]
  IC50: 1 to 3 µM

## O=C(CCCCCCCCc1ccc(O)cc1)c1c(O)cccc1O [MALABARICONE B]
[1]
  IC50: 3.5 µM
[3]
  IC50: 2 to 3 µM
[2]
  IC50: 2.5 µM
[4]
  IC50: 1 to 3 µM

## O=C(CCCCCCCCc1ccc(O)c(O)c1)c1c(O)cccc1O [MALABARICONE C]
[1]
  IC50: 3 µM
[5]
  inhibition: Active
[3]
  IC50: 2 to 3 µM
MEF
  Activity: 56 to 97%
[6]
  Activity: Non-Toxic
Mus musculus [7]
  Activity: Active
HepG2 [8]
  Activity: Dose-dependent effect
[2]
  IC50: 1.5 µM
[4]
  IC50: 1 to 3 µM
HepG2 [9]
  Activity: inactive
Mus musculus [10]
  Activity: Active
[11]
  Activity: Toxic
HepG2 [12]
  Activity: Dose-dependent effect
HepG2 [13]
  Activity: Dose-dependent effect
Mus musculus [14]
  Activity: Active
Mus musculus [15]
  Activity: Active
Mus musculus [16]
  Activity: 42.7%
Mus musculus [17]
  Activity: Active
Mus musculus [18]
  Activity: Active
[19]
  Activity: Non-Toxic
Mus musculus [20]
  Activity: Active
[21]
  IC50: 13 µM
[22]
  Activity: Non-Toxic
Mus musculus [23]
  Activity: Active
[24]
  inhibition: Active
[25]
  IC50: 11 µM
